The term melting point denotes the temperature of the solid-liquid transition. The term IC50 denotes the concentration that inhibits the measured activity by half.

Data set [1] deals with T1, rat P2X3 receptor (Rattus norvegicus, UniProt P49654).
T1 construct: expressed in transfected cells; host or cells: CHO-K1
T1 sequence (P49654 1-397): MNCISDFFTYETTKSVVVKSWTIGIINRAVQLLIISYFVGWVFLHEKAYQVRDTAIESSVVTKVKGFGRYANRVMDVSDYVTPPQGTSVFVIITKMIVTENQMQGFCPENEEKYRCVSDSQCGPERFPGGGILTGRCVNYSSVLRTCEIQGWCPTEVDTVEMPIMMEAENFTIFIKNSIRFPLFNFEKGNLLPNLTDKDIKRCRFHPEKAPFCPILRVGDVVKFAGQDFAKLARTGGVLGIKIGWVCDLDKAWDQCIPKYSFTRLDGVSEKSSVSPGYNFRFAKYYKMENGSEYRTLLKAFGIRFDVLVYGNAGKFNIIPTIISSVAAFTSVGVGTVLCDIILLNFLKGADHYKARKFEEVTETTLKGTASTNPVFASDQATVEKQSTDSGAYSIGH
Put plainly: P2X3 FLIPR (Fluorometric Imaging Plate Reader) assay. The data set is classed as cell-based. Particulars: CHO-K1 cells transfected with rat P2X3, agonist α,β-meATP 1 μM. Here is the method: P2X3/P2X2/3 FLIPR (Fluorometric Imaging Plate Reader) Assay
CHO-K1 cells were transfected with cloned rat P2X3 or human P2X2/3 receptor subunits and passaged in flasks. 18-24 hours before the FLIPR experiment, cells were released from their flasks, centrifuged, and resuspended in nutrient medium at 2.5×10^5 cells/ml. The cells were aliquoted into black-walled 96-well plates at a density of 50,000 cells/well and incubated overnight in 5% CO2 at 37° C. On the day of the experiment, cells were washed in FLIPR buffer (calcium- and magnesium-free Hank's balanced salt solution, 10 mM HEPES, 2 mM CaCl2, 2.5 mM probenecid; FB). […]
Test compounds (dissolved in DMSO at 10 mM and serially diluted with FB) or vehicle were added to each well (25 μl of a 4× solution) and allowed to equilibrate for 20 minutes at room temperature. The plates were then placed in the FLIPR and a baseline fluorescence measurement (excitation at 488 nm and emission at 510-570 nm) was obtained for 10 seconds before a 100 μl/well agonist or vehicle addition. […] Fluorescence was measured for an additional 2 minutes at 1 second intervals after agonist addition. A final addition of ionomycin (5 μM, final concentration) was made to each well of the FLIPR test plate to establish cell viability and maximum fluorescence of dye-bound cytosolic calcium. […]

For `CCCc1nnnn1-c1cc(C(=O)NCc2cnc(C)cn2)cc(-c2ccc(Cl)cc2F)c1` [Example 741, 4′-Chloro-2′-fluoro-5-(5-propyl-tetrazol-1-yl)-biphenyl-3-carboxylic acid (5-methyl-pyrazin-2-ylmethyl)-amide], the melting point fell in the range of 52 to 55 °C. The same measure, in the same setting: under `CCCc1nnnn1-c1cc(C(=O)N[C@@H](C)CO)cc(-c2ccc(Cl)cc2F)c1` [Example 742, 4′-Chloro-2′-fluoro-5-(5-propyl-tetrazol-1-yl)-biphenyl-3-carboxylic acid ((S)-2-hydroxy-1-methyl-ethyl)-amide] stands 58 to 60.3 °C. Turning to `Cc1ccc(-c2cc(C(=O)N[C@@H](C)CO)cc(-n3nnnc3CC(C)C)c2)cc1` [5-(5-isobutyl-tetrazol-1-yl)-4′-methyl-biphenyl-3-carboxylic acid ((S)-2-hydroxy-1-methyl-ethyl)-amide], in data set [1], the IC50 is approximately 1.58 nM.

Source of the values: patent US7595405B2, “Tetrazole-substituted arylamides as P2X3 and P2X2/3 antagonists” (Roche Palo Alto LLC, priority 2006, dated 2009).
